Laboratory results reported in patent US20230124361A1, “SMALL MOLECULE STING ANTAGONISTS” (CURADEV PHARMA PVT. LTD., priority 2020, published 2023).

Each molecule was assayed against T1, STING (Homo sapiens, UniProt Q86WV6, G230A/H232R/R293Q/R71H) (assay: Reporter gene expression assay in THP1-Dual cells (IRF pathway Lucia luciferase, 2',3'-cGAMP stimulation)). Conditions: 10 min preincubation, 5 μM 2',3'-cGAMP, 20 hr, IRF reporter QUANTI-Luc, read-out: THP-1 (HAQ) Activity.
T1 construct: host or cells: THP1-Dual cells (human THP-1 monocyte line with Lucia/SEAP reporters)
Assay type: cell-based
Method: Reporter Gene Expression Assay in THP-1 Cells
THP1-Dual™ cells (Invivogen) were derived from the human THP-1 monocyte cell line by stable integration of two inducible reporter constructs. As a result, THP1-Dual™ cells allow the simultaneous study of the IRF pathway, by assessing the activity of a secreted luciferase (Lucia) and the NF-κB pathway, by monitoring the activity of secreted SEAP. 5×10^4 THP1-Dual™ cells were seeded in 384-well plates in growth medium and preincubated with novel compounds for 10 minutes followed by stimulation with 5 μM 2′,3′-cGAMP. After 20 hr of stimulation the supernatant was removed and the IRF pathway reporter protein was readily measured in the cell culture supernatant using QUANTI-Luc™ (Invivogen), a luciferase detection reagent on a Spectramax i3X luminometer.
In the tables below, IC50 value ranges for exemplary compounds are given. The IC50 ranges are indicated as “A” for values less than or equal to 1 μM, “B” for values greater than 1 μM and less than or equal to 10 μM, and “C” for values greater than 10 μM.

T1 sequence (Q86WV6 whole entry R71H/G230A/H232R/R293Q): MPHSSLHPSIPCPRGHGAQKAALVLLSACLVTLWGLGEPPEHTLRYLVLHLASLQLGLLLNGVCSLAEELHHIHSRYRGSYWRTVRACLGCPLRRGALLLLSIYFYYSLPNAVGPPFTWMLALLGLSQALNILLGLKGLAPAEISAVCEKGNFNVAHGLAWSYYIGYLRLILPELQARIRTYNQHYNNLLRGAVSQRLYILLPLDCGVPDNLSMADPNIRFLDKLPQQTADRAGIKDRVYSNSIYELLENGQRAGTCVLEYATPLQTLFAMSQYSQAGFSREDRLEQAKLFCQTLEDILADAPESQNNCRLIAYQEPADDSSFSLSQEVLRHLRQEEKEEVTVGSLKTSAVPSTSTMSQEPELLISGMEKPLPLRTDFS

| IC50 [µM] | Structure (SMILES) |
| --- | --- |
| > 10 | N#C/N=C(\Nc1ccc2c(c1)N(Cc1ccccc1)C(=O)CS2)Nc1ccc2cc[nH]c2c1 [Example 192] |
| 1 to 10 | O=C(Nc1ccc2c(c1)OCC(=O)N2Cc1cccnc1)Nc1ccc2cc[nH]c2c1 [Example 148, 1-(1H-indol-6-yl)-3-(3-oxo-4-(pyridin-3-ylmethyl)-3,4-dihydro-2H-benzo [b][1, 4]oxazin-7-yl)urea] |
| 1 to 10 | Cc1cc(CN2C(=O)CSc3ccc(NC(=O)Nc4ccc5cc[nH]c5c4)cc32)ccn1 [Example 60] |
| > 10 | NC(=O)c1cccc(CN2C(=O)COc3cc(NC(=O)Nc4ccc5cc[nH]c5c4)ccc32)c1 [Example 155, 3-((7-(3-(1H-indol-6-yl)ureido)-3-oxo-2,3-dihydro-4H-benzo[b][1, 4]oxazin-4-yl)methyl) benzamide] |
| 1 to 10 | O=C(Nc1ccc2c(c1)OCC(=O)N2Cc1ccon1)Nc1ccc2cc[nH]c2c1 [Example 164, 1-(1H-indol-6-yl)-3-(4-(isoxazol-3-ylmethyl)-3-oxo-3,4-dihydro-2H-benzo[b][1, 4]oxazin-7-yl)urea] |
| ≤ 1 | O=C(Nc1ccc2c(c1)OCC(=O)N2Cc1cc(Cl)cc(C(F)(F)F)c1)Nc1ccc2cc[nH]c2c1 [Example 99, l-(4-(3-chloro-5-(trifluoromethyl)benzyl)-3-oxo-3,4-dihydro-2H-benzo[b][1, 4]oxazin-7-yl)-3-(1H-indol-6-yl)urea] |
| 1 to 10 | O=C(Nc1ccc2c(c1)OCC(=O)N2Cc1ccc(F)c(Cl)c1)Nc1ccc2cc[nH]c2c1 [Example 111, 1-(4-(3-chloro-4-fluorobenzyl)-3-oxo-3,4-dihydro-2H-benzo[b][1,4]oxazin-7-yl)-3-(1H-indol-6-yl)urea] |
| > 10 | O=C(Nc1ccc2c(c1)OCC(=O)N2Cc1nnco1)Nc1ccc2cc[nH]c2c1 [Example 151, 1-(4-((1,3,4′-oxadiazol-2-yl)methyl)-3-oxo-3,4-dihydro-2H-benzo[b][1, 4]oxazin-7-yl)-3-(1H-indol-6-yl)urea] |
| ≤ 1 | O=C(Nc1ccc2c(c1)OCC(=O)N2Cc1ccc(C(F)(F)F)nc1)Nc1ccc2cc[nH]c2c1 [Example 104, 1-(1H-indol-6-yl)-3-(3-oxo-4-((6-(trifluoromethyl)pyridin-3-yl)methyl)-3,4-dihydro-2H-benzo[b][1,4]oxazin-7-yl)urea] |
| 1 to 10 | O=C(Nc1ccncc1)Nc1ccc2c(c1)N(Cc1ccccc1)C(=O)CS2 [Example 6, 1-(4-benzyl-3-oxo-3,4-dihydro-2H-benzo[b][1, 4]thiazin-6-yl)-3-(pyridin-4-yl)urea] |
| > 10 | O=C(Nc1ccc2c(c1)OCC(=O)N2Cc1cnc[nH]1)Nc1ccc2cc[nH]c2c1 [Example 162, 1-(4-((1H-imidazol-5-yl)methyl)-3-oxo-3,4-dihydro-2H-benzo[b][1, 4]oxazin-7-yl)-3-(1H-indol-6-yl)urea] |
| ≤ 1 | O=C(Nc1ccc2c(c1)N(Cc1ccccc1)CCS2)Nc1ccc2cc[nH]c2c1 [Example 50, 1-(4-Benzyl-3,4-dihydro-2H-benzo[b][1,4]thiazin-6-yl)-3-(1H-indol-6-yl)urea] |

Further lines, the molecule ahead of its results:

| Structure (SMILES) | IC50 [µM] |
| --- | --- |
| O=C(Nc1ccc2c(c1)N(CC1CC1)CCS2)Nc1ccc2cc[nH]c2c1 [Example 65, 1-(4-(cyclopropyl-methyl)-3,4-dihydro-2H-benzo[b][1, 4]thiazin-6-yl)-3-(1H-indol-6-yl)urea] | ≤ 1 |
| O=C(Nc1ccc2c(c1)OCC(=O)N2Cc1ccc(OC(F)(F)F)c(Cl)c1)Nc1ccc2cc[nH]c2c1 [Example 107, 1-(4-(3-chloro-4-(trifluoromethoxy)benzyl)-3-oxo-3,4-dihydro-2H-benzo[b][1,4]oxazin-7-yl)-3-(1H-indol-6-yl)urea] | ≤ 1 |
| O=C(Nc1ccc2c(c1)OCC(=O)N2Cc1ccccc1)Nc1ccn(-c2ccccc2)n1 [Example 138, 1-(4-benzyl-3-oxo-3,4-dihydro-2H-benzo[b][1, 4]oxazin-7-yl)-3-(1-phenyl-1H-pyrazol-3-yl)urea] | > 10 |
| O=C1CSc2ccc(-c3ncc(-c4ccccc4)[nH]3)cc2N1Cc1c(F)cccc1Cl [Example 43, 4-(2-Chloro-6-fluorobenzyl)-6-(t-phenyl-1H-imidazol-2-yl)-2H-benzo[b][1,4]thiazin-3(4H)-one] | 1 to 10 |
| NC(=O)C1COc2cc(NC(=O)Nc3ccc4cc[nH]c4c3)ccc2N1Cc1ccccc1 (stereo not shown) [Example 188, 7-(3-(1H-indol-6-yl)ureido)-4-benzyl-3,4-dihydro-2H-benzo[b][1,4]oxazine-3-carboxamide] | 1 to 10 |
| O=C(Nc1ccc2c(c1)OCC(=O)N2Cc1ccccc1C(=O)O)Nc1ccc2cc[nH]c2c1 [Example 143, 2-((7-(3-(1H-indol-6-yl)ureido)-3-oxo-2,3-dihydro-4H-benzo[b][1,4]oxazin-4-yl)methyl)benzoic acid] | > 10 |
| CN(C(=O)Nc1ccc2cc[nH]c2c1)c1ccc2c(c1)N(Cc1ccccc1)CCO2 [Example 178, 1-(4-benzyl-3,4-dihydro-2H-benzo[b][1, 4]oxazin-6-yl)-3-(1H-indol-6-yl)-1-methylurea] | 1 to 10 |
| O=C(Nc1ccc2c(c1)OCC(=O)N2Cc1ccc(-n2cncn2)cc1)Nc1ccc2cc[nH]c2c1 [Example 128, 1-(4-(4-(1H-1,2,4-triazol-1-yl)benzyl)-3-oxo-3,4-dihydro-2H-benzo[b][1, 4]oxazin-7-yl)-3-(1H-indol-6-yl)urea] | > 10 |
| O=C(Nc1ccc2c(c1)N(Cc1ccccc1)CCO2)Nc1ccc2cc[nH]c2c1 [Example 56, 1-(4-benzyl-3,4-dihydro-2H-benzo[b][1, 4]oxazin-6-yl)-3-(1H-indol-6-yl)urea] | 1 to 10 |
| N#Cc1ccc(CNC(=O)Nc2ccc3c(c2)N(Cc2ccccc2)C(=O)CS3)cc1 [Example 12, 1-(4-benzyl-3-oxo-3,4-dihydro-2H-benzo[b][1, 4]thiazin-6-yl)-3-(4-cyanobenzyl) urea] | > 10 |
| O=C(Nc1ccc(F)cc1)Nc1ccc2c(c1)N(Cc1ccccc1)CCS2 [Example 173, 1-(4-benzyl-3,4-dihydro-2H-benzo[b][1, 4]thiazin-6-yl)-3-(4-fluorophenyl) urea] | 1 to 10 |
| O=C(Nc1ccc2c(c1)OCC(=O)N2Cc1ccccc1)NC1CCC(c2ccccc2)CC1 (mixture of isomers) [Example 137, 1-(4-benzyl-3-oxo-3,4-dihydro-2H-benzo[b][1, 4]oxazin-7-yl)-3-(4-phenyl-cyclohexyl)urea] | 1 to 10 |
| NCC1COc2cc(NC(=O)Nc3ccc4cc[nH]c4c3)ccc2N1Cc1ccccc1 (stereo not shown) [Example 187, 1-(3-(aminomethyl)-4-benzyl-3,4-dihydro-2H-benzo[b][1,4]oxazin-7-yl)-3-(1H-indol-6-yl)urea] | 1 to 10 |
| CN1Cc2ccc(NC(=O)Nc3ccc(F)cc3)cc2N(Cc2ccccc2)C1=O [Example 39, 1-(1-Benzyl-3-methyl-2-oxo-1,2,3,4-tetrahydroquinazolin-7-yl)-3-(4-fluorophenyl)urea] | 1 to 10 |
| O=C(Nc1ccc2c(c1)N(C(=O)c1ccccc1)CCS2)Nc1ccc2cc[nH]c2c1 [Example 57, 1-(4-benzoyl-3,4-dihydro-2H-benzo[b][1, 4]thiazin-6-yl)-3-(1H-indol-6-yl)urea] | > 10 |
| CN1CCN(Cc2ccccc2)c2cc(NC(=O)Nc3ccc4cc[nH]c4c3)ccc21 [Example 73, 1-(4-Benzyl-1-methyl-1,2,3,4-tetrahydroquinoxalin-6-yl)-3-(1H-indol-6-yl)urea] | 1 to 10 |
